# How the values were obtained:
# [1] = target: FLuc-N-HiBiT (firefly luciferase) (Photinus pyralis, UniProt P08659, form not given/L550V); assay: SDR assay, FLuc-N-HiBiT; conditions: for % Activity (max response) / % Activity (max response, + ATP) / % Activity (max response, - ATP): SDR; for % Activity (max response, + ATP) / % Activity (max response, - ATP) / pSDR50 (clade A'): substituted indoline (clade A')
# PKA-N-HiBiT = PKA-N-HiBiT (Homo sapiens, UniProt P17612); assay: SDR assay, PKA-N-HiBiT
# [2] = target: T1, ABL1-N-HiBiT kinase domain (Homo sapiens, UniProt P00519); assay: SDR assay, ABL1-N-HiBiT; conditions: ABL1-N-HiBiT qHTS, SDR assay, average maximal response
# T1 sequence (P00519 233-500): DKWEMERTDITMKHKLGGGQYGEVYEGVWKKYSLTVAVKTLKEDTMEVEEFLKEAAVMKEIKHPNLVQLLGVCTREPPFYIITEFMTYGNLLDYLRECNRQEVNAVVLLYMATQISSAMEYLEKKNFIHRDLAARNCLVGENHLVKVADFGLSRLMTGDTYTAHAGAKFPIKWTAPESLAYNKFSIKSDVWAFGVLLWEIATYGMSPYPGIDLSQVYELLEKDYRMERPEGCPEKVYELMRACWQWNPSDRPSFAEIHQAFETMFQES
# FLuc-C-HiBiT = target: T2, FLuc-C-HiBiT (Photinus pyralis, UniProt P08659); assay: biochemical; conditions: enzyme activity, 10 uM ATP; read-out: IC50 or SDR50 (mM) / FLuc E
# T2 construct: firefly luciferase with C-terminal HiBiT tag, E. coli expressed
# T2 sequence (P08659 whole entry, looked up): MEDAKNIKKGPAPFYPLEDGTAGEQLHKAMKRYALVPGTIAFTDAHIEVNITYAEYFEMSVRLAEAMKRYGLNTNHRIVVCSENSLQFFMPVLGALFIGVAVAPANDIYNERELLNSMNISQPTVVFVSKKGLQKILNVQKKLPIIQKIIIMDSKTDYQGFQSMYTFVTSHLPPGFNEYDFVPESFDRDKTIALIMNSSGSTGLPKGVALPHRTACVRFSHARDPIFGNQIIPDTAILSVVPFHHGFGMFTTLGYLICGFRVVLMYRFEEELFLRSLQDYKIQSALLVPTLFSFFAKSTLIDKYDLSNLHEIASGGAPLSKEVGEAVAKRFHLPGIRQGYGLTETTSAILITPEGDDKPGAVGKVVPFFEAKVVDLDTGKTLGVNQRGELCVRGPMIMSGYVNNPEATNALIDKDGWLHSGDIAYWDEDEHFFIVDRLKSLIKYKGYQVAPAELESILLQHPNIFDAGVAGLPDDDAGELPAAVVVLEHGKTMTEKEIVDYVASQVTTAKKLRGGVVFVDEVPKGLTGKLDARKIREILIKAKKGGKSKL
# [3] = ATP-independent imidazo[2,1-b]thiazole (clade O) series
# [4] = ATP-independent pyrazolo pyrimidine (clade P)
# FLuc-N-HiBiT (firefly luciferase), sequence (P08659 2-550 L550V, form open): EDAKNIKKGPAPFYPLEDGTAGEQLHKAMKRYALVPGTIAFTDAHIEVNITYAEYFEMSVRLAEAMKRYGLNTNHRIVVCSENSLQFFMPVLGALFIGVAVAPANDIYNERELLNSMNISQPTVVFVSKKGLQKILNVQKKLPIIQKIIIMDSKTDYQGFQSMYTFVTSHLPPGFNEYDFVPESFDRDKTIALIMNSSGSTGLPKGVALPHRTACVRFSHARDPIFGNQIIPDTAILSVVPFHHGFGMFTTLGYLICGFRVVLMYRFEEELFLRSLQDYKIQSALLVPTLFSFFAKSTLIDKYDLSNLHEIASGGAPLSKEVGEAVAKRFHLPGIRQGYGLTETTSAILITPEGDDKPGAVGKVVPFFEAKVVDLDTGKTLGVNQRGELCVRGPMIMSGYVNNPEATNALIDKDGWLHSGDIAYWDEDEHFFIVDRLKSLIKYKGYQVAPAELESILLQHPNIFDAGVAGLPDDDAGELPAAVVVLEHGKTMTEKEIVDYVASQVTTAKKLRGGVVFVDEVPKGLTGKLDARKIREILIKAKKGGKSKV
SMILES,IC50 (FLuc-C-HiBiT) [nM],"% Activity (max response, + ATP) ([1]; + ATP) [%]","% Activity (max response, - ATP) ([1]; - ATP) [%]",pSDR50 (clade A') ([1]; + ATP),pSDR50 (clade A') ([1]; - ATP),other results
Clc1ccccc1Cc1cn2cc(-c3ccccc3)nc2s1 [Compound 0],,,,,,"pSDR50 (clade O) [1, 3]: 5.98; % Activity (max response) [1, 3]: 50.48%"
Fc1ccc(Cc2cn3cc(-c4ccccc4)nc3s2)cc1 [Compound 2],,,,,,"pSDR50 (clade O) [1, 3]: 5.92; % Activity (max response) [1, 3]: 39.94%"
Clc1ccc(-c2cn3cc(Cc4ccccc4)sc3n2)cc1 [Compound 4],,,,,,"pSDR50 (clade O) [1, 3]: 5.57; % Activity (max response) [1, 3]: 64.57%"
Fc1ccccc1Cc1cn2cc(-c3ccc(Cl)cc3)nc2s1 [Compound 6],,,,,,"pSDR50 (clade O) [1, 3]: 5.50; % Activity (max response) [1, 3]: 29.23%"
Fc1ccc(-c2cn3cc(Cc4ccccc4)sc3n2)cc1 [Compound 10],,,,,,"pSDR50 (clade O) [1, 3]: 5.73; % Activity (max response) [1, 3]: 39.11%"
Fc1ccc(-c2cn3cc(Cc4ccccc4Cl)sc3n2)cc1 [Compound 30],,,,,,"pSDR50 (clade O) [1, 3]: 5.26; % Activity (max response) [1, 3]: 49.79%"
Fc1ccc(Cc2cn3cc(-c4ccc(F)cc4)nc3s2)cc1 [Compound 34],,,,,,"pSDR50 (clade O) [1, 3]: 6.28; % Activity (max response) [1, 3]: 22.33%"
Brc1ccc(-c2cn3cc(Cc4ccccc4)sc3n2)cc1 [Compound 36],,,,,,"pSDR50 (clade O) [1, 3]: 5.89; % Activity (max response) [1, 3]: 18.18%"
Cc1ccc(Cc2cn3cc(-c4ccccc4)nc3s2)cc1 [Compound 98],,,,,,"pSDR50 (clade O) [1, 3]: 5.78; % Activity (max response) [1, 3]: 56.11%"
c1ccc(-n2ncc3c(N4CCCCC4)ncnc32)cc1 [Compound 373],,,,,,"pSDR50 (clade P) [1, 4]: 5.48; % Activity (max response) [1, 4]: 80.68%"
CC1CCCN(c2ncnc3c2cnn3-c2ccccc2)C1 (centres unmarked) [Compound 381],,,,,,"pSDR50 (clade P) [1, 4]: 5.61; % Activity (max response) [1, 4]: 79.86%"
CC1CCCN(c2ncnc3c2cnn3-c2ccc(Cl)cc2)C1 (centres unmarked) [Compound 383],,,,,,"pSDR50 (clade P) [1, 4]: 5.51; % Activity (max response) [1, 4]: 116.20%"
Nc1ncc(-c2cnn(CCO)c2)c2scc(-c3ccc(NC(=O)Nc4cccc(F)c4)cc3)c12 [Ilorasertib],,,,,,"SDR Ave Max Response (PKA-N-HiBiT; PKA-N-HiBiT qHTS, average): 5.66; SDR Ave Max Response [2]: 123.93"
CCOC(=O)C1CCN(C(=O)c2cccc3c2CCN3C(=O)Nc2ccccc2)CC1 [NCGC00430100-01],1760,124.90,16.28,5.52,,
CN(Cc1ccccc1)C(=O)c1cccc2c1CCN2C(=O)Nc1ccccc1 [NCGC00430102-01],279,122.30,17.23,6.38,5.03,
CC(NC(=O)c1cccc2c1CCN2C(=O)Nc1ccccc1)c1cccnc1 (centres unmarked) [NCGC00430104-01],1760,120.10,19.02,5.53,4.71,
CN(Cc1ccco1)C(=O)c1cccc2c1CCN2C(=O)Nc1ccccc1 [NCGC00430106-01],197,117.40,20.13,6.53,2.52,
CCN1CCN(CCNC(=O)c2cccc3c2CCN3C(=O)Nc2ccc(C)cc2)CC1 [NCGC00430114-01],1110,125.50,93.19,5.79,4.11,
CCCNC(=O)c1cccc2c1CCN2C(=O)Nc1cccc(C)c1 [NCGC00430116-01],2480,115.10,34.94,5.48,3.57,
Cc1cccc(NC(=O)N2CCc3c(C(=O)N4CCN(C)CC4)cccc32)c1 [NCGC00430118-01],1760,120.00,22.45,5.59,3.92,

SMILES,IC50 (FLuc-C-HiBiT) [nM],"% Activity (max response, + ATP) ([1]; + ATP) [%]","% Activity (max response, - ATP) ([1]; - ATP) [%]",pSDR50 (clade A') ([1]; + ATP),pSDR50 (clade A') ([1]; - ATP),other results
CCC(C)(C)NC(=O)c1cccc2c1CCN2C(=O)Nc1cccc(C)c1 [NCGC00430120-01],7850,86.92,21.61,4.90,2.52,
Cc1cccc(NC(=O)N2CCc3c(C(=O)NC(C)(C)C)cccc32)c1 [NCGC00430124-01],8810,30.08,45.88,3.69,4.31,
COc1ccc(NC(=O)N2CCc3c(C(=O)NCCCN4CCCC4=O)cccc32)cc1 [NCGC00430130-01],248,129.70,57.00,6.47,4.44,
COc1ccc(NC(=O)N2CCc3c(C(=O)NCCN4CCCCCC4)cccc32)cc1 [NCGC00430136-01],556,125.00,26.27,6.10,3.93,
COc1ccc(NC(=O)N2CCc3c(C(=O)N(C)Cc4ccco4)cccc32)cc1 [NCGC00430138-01],1760,125.10,31.17,5.60,3.60,
O=C(NCc1ccco1)c1cccc2c1CCN2C(=O)Nc1ccc(F)cc1 [NCGC00430142-01],1110,118.20,37.02,5.76,3.81,
CCCCNC(=O)c1cccc2c1CCN2C(=O)Nc1ccccc1 [NCGC00430146-01],1570,123.10,25.03,5.71,5.51,
CN(C)CCNC(=O)c1cccc2c1CCN2C(=O)Nc1ccccc1 [NCGC00430150-01],700,120.00,17.07,5.93,,
CNC(=O)c1cccc2c1CCN2C(=O)Nc1ccc(C)cc1 [NCGC00430160-01],351,123.10,78.58,6.37,4.88,
Cc1ccc(NC(=O)N2CCc3c(C(=O)NCc4ccco4)cccc32)cc1 [NCGC00430166-01],49.5,127.00,89.24,7.11,5.17,
Cc1ccc(NC(=O)N2CCc3c(C(=O)NCCc4ccccn4)cccc32)cc1 [NCGC00430168-01],4420,131.70,51.01,4.89,4.36,
COc1ccc(NC(=O)N2CCc3c(C(=O)NCc4ccncc4)cccc32)cc1 [NCGC00430180-01],624,125.10,68.63,6.06,4.73,
COc1ccc(NC(=O)N2CCc3c(C(=O)N(C)C)cccc32)cc1 [NCGC00430182-01],111,126.00,37.35,6.80,4.62,
COc1ccc(NC(=O)c2cccc3c2CCN3C(=O)Nc2ccc(F)cc2)c(C)c1 [NCGC00430188-01],556,119.00,13.12,6.16,,
O=C(NCCc1cccnc1)c1cccc2c1CCN2C(=O)Nc1ccc(F)cc1 [NCGC00430192-01],221,119.50,23.04,6.44,2.73,
O=C(NCCc1cccs1)c1cccc2c1CCN2C(=O)Nc1ccc(F)cc1 [NCGC00430196-01],785,108.30,19.81,5.86,,
CN(C)C(=O)c1cccc2c1CCN2C(=O)Nc1ccc(F)cc1 [NCGC00430198-01],3940,116.90,14.79,5.19,,
CCC(=O)N1CCc2c(C(=O)O)cccc21 [NCGC00432605-01],> 30000,19.35,9.26,,,
CO[C@H]1/C=C/O[C@@]2(C)Oc3c(C)c(O)c4c(O)c(c(/C=N/N5CCN(C6CCCC6)CC5)c(O)c4c3C2=O)NC(=O)/C(C)=C\C=C\[C@H](C)[C@H](O)[C@@H](C)[C@@H](O)[C@@H](C)[C@H](OC(C)=O)[C@@H]1C [Rifapentin],,,,,,EC50 (PKA-N-HiBiT): 16200 nM
Oc1ccc(-c2ccc(-c3cc(Nc4cccc(CNC5CC5)c4)n[nH]3)cc2)c(O)c1 [TCS 2312],,,,,,EC50 (PKA-N-HiBiT): 17400 nM

# Source: paper PMC12064818, “A general assay platform to study protein pharmacology using ligand-dependent structural dynamics” (Nature Communications, 2025)
